Test [1] concerns the target T1, Estrogen receptor of a mouse uterus (Mus musculus, UniProt P19785).
T1 construct: The homogenate is then ultracentrifuged (209,000 g×30 mn.) at 0° C; from tissue; host or cells: uterus of 18 to 21-day old immature female mice, cytosol (ultracentrifugation supernatant of the homogenate)
T1 sequence (P19785 1-599): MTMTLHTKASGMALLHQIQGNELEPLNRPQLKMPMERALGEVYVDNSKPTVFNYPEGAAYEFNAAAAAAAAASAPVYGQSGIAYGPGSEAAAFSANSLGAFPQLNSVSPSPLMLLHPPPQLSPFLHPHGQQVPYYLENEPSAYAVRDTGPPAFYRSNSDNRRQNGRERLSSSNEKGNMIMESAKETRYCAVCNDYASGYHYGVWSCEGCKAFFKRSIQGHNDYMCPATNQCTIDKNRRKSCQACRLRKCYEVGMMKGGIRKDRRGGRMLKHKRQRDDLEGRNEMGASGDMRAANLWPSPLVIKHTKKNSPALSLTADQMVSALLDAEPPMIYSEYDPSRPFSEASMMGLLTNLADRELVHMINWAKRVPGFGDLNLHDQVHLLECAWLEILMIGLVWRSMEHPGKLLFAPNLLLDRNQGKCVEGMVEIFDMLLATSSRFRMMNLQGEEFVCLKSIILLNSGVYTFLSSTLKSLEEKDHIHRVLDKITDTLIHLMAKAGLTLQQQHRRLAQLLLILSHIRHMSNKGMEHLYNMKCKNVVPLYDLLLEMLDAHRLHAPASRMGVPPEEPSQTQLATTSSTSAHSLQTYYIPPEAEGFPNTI
As to the kind of experiment: Activity on the estrogen receptor of a mouse uterus (relative bond affinity, displacement of tritiated estradiol). The class given is binding. The settings on record: mouse uterus cytosol, RBA = 100 (CH)/(CX) relative to unlabelled estradiol. On the procedure: 1—Study of the Activity of the Products of the Invention on the Estrogen Receptor of a Mouse Uterus
18 to 21-day old impuberal female mice are sacrificed, the uteri are removed, then homogenized at 0° C., using a Potter teflon-glass in a TS buffered solution (10 mM Tris, 0.25 M saccharose, HCl pH 7.4) (1 g of tissue per 25 ml of TS). The homogenate is then ultracentrifuged (209,000 g×30 mn.) at 0° C. The supernatant aliquots thus obtained are incubated at 25° C. for 5 hours, with a constant concentration (T) of tritiated estradiol in the presence of increasing concentrations either of unlabelled estradiol (0-1000×10^−9M), or of unlabelled product to be tested (1 to 25000×10^−9M). The concentration of bound tritiated estradiol (B) is then measured in each incubate by the carbon-dextran adsorption technique.
Calculation of the Relative Bond Affinity (RBA)
The following two curves are drawn: the percentage of bound tritiated hormone B/BO as a function of the logarithm of the concentration of unlabelled reference hormone or as a function of the logarothm of the concentration of unlabelled test product.
The straight line of the following equation:
BO=% of binding of the bound tritiated hormone in the absence of any unlabelled product.
B=% of the bound tritiated hormone in the presence of a concentration X of unlabelled product.
B min=% of bound tritiated hormone in the presence of a large excess of unlabelled reference hormone (500 nM).
The intersections of the straight line I50 and the curves allow the evaluation of the concentrations of unlabelled reference hormone (CH) and of the unlabelled test product (CX) which inhibit by 50% the specific binding of the tritiated hormone on the receptor.
The relative bond affinity (RBA) of the test product is calculated by the equation: […]

For test [2], the system named is MCF-7 mammary tumour cells. As to the kind of experiment: Anti-proliferative activity on the growth of MCF-7 mammary tumour cells (DNA dosage). The class given is cell-based. The settings on record: MCF-7 cells in DSE medium with 10^-10 M estradiol, D7 to D9, DNA by DABA fluorimetry, read-out: IC 50: concentration which inhibits the growth of MCF7 cells by 50%. On the procedure:
2—Anti-proliferative Activity of the Products of the Invention on the Growth of MCF-7 Mammary Tumour Cells
MCF-7 lines are kept in culture in FCS medium (according to 1) at 37° C. in a humid atmosphere containing 5% CO2. Subconfluent cells are collected by trypsination (0.05% trypsin, 0.02% EDTA) then rinsed by gentle centrifugation. A sample of cells in suspension is counted with a Malassez cell.
The cells, resuspended in DSE medium (according to 1), are seeded at the rate of 50,000 cells per well in multiwell plates (24 wells of 2.5 cm^2). Twenty-four hours after seeding (D0), the product to be tested is added to the medium in ethanolic solution (final concentration of ethanol: 0.1%), at a concentration of 10^−11 to 10^−6M, the control wells receiving the same ethanol concentration. The media are renewed every 48 hours. At the end of the experiment (D7 to D9), the medium is extracted and the cells are immediately fixed with 150 microlitres of methanol in order to dose the DNA.
The anti-proliferative activity of the products is evaluated by their capacity to inhibit the increase of DNA
The DNA is dosed by a fluorimetric method using DABA (3,5 diaminobenzoic acid) (according to 2): 150 microlitres of DABA are added to each well; the plates are then incubated for 45 mn at 56° C., then 2 ml of 1N HCl is added. The fluorescence is measured using a fluorimeter (excitation wavelength: 408 nm, emission wavelength: 510 nm).
The quantity of DNA per well is evaluated relative to a reference scale obtained by treating a calf thymus DNA standard under the same conditions.
The concentration in nM which inhibits the growth of MCF7 cells by 50% (IC50) was determined in the manner indicated above:
(1) A Base Medium is Prepared as Follows
The FCS medium is composed of 95% of base medium and 5% of foetal calf serum.
The DSE medium is composed of 95% of base medium, 5% of steroid-free foetal calf serum on carbon-dextran and 10^−10 M of estradiol.
(2) Puzas and Goodman, Analytical Biochemistry, Vol 86, p. 50, 1978

Where two headings read alike, the source gives them in different places.

For `C[C@]1(O)CC[C@H]2[C@@H]3CCc4cc(O)ccc4[C@H]3[C@@H](c3ccc(OCCCCCS(=O)(=O)CCCC(F)(F)C(F)(F)F)cc3)C[C@@]21C` [Example 78, 11beta-[4-[5-[(4,4,5,5,5-pentafluoropentyl)sulphonyl]pentyloxy]phenyl]17alpha-methyl estra-1,3,5(10)-triene-3,17beta-diol], the “Relative bond affinity (RBA), Estrogen receptor incubation 5H at 25° C.” value (from here on “Relative bond affinity (RBA)”) in test [1] amounted to 21.8. In addition, the IC50 in test [2] is 30 pM.
`C[C@]12C[C@H](c3ccc(OCCCCCS(=O)(=O)CCCC(F)(F)C(F)(F)F)cc3)[C@@H]3c4ccc(O)cc4CC[C@H]3[C@@H]1CC[C@@H]2O` [Example 32, 11beta-[4-[5-[(4,4,5,5,5-pentafluoropentyl)sulphonyl]pentyloxy]phenyl]estra-1,3,5(10)-triene-3,17beta-diol]: in test [1], the “Relative bond affinity (RBA)” value is on record as 56. Also, the IC50 in test [2] (Homo sapiens, MCF7) turned out to be 100 pM.
As for `C[C@]12C[C@H](c3ccc(OCCCCC[S+]([O-])Cc4cccnc4)cc3)[C@@H]3c4ccc(O)cc4CC[C@H]3[C@@H]1CC[C@@H]2O` (stereo partly drawn) [Example 7, 11beta-[4-[5-[(3-pyridinylmethyl)sulphinyl]pentyloxy]phenyl]estra-1,3,5(10)-triene-3,17beta-diol], the “Relative bond affinity (RBA)” value in test [1] stood at 26.3. In addition, in test [2] (Homo sapiens, MCF7), the IC50 is 26 pM.
In the same order, the values of `CCCCCS(=O)(=O)C(C)CCCOc1ccc([C@H]2C[C@]3(C)[C@@H](O)CC[C@H]3[C@@H]3CCc4cc(O)ccc4[C@H]32)cc1` (stereo partly drawn) [Example 60, 11beta-[4-[4-(pentylsulphonyl)pentyloxy]phenyl]estra-1,3,5(10)-triene-3,17beta-diol] are 18.2 and 250 pM.
Turning to `C[C@]12C[C@H](c3ccc(OCCCCC[S+]([O-])Cc4ccccn4)cc3)[C@@H]3c4ccc(O)cc4CC[C@H]3[C@@H]1CC[C@@H]2O` (stereo partly drawn) [Example 5, 11beta-[4-[5-[(2-pyridinylmethyl)sulphinyl]-pentyloxy]phenyl]estra-1,3,5(10)-triene-3,17beta-diol], in test [1], the “Relative bond affinity (RBA)” value came out at 21.2. Moreover, the IC50 in test [2] (Homo sapiens, MCF7) is 12 pM.
Take `C[C@]12C[C@H](CCCCCCCCSCc3ccccn3)[C@@H]3c4ccc(O)cc4CC[C@H]3[C@@H]1CC[C@@H]2O` [Example 1, 11beta-[8-[(2-pyridinylmethyl)thio]octyl]estra-1,3,5(10)-triene-3,17beta-diol]: the IC50 in test [2] (Homo sapiens, MCF7) worked out at 24 pM.

The values above are taken from patent US6596885B2, “19-Nor steroids having a thiocarbonated chain in position 11beta, their preparation process and the intermediates of this process, their use as medicaments and compositions” (Aventis Pharma S.A., priority 1991, dated 2003).
